Measured values reported in PMC12777568 (Antimicrobial Agents and Chemotherapy, 2025).

Assay: BIC plasma pharmacokinetics, Phase 1 open-label single-dose DDI study GS-US-380-3909 (B/F/TAF 50/200/25 mg with antacid or mineral supplements)
Assay type: in vivo, human
Settings: for Cmax, reference GLSM: BIC alone (N = 14); for half-life / Vd/F / AUC(0-inf): both sexes, human, plasma, oral; for half-life: BIC T1/2, median (Q1, Q3); for Vd/F: BIC VZ/F; for Vd/F / AUC(0-inf): mean (%CV); for AUC(0-inf): BIC plasma AUCinf
Experimental: Eligible participants were adult (18–45 years) males and non-pregnant, non-lactating females in good general health at a screening evaluation performed no more than 28 days before the first study dose. […] Full eligibility criteria are available in the supplement. All prescription and over-the-counter medications except vitamins, acetaminophen, ibuprofen, and hormonal contraceptives were not permitted during study participation. Three dosing cohorts were evaluated (Table 1). […] Vitamins and/or other supplements were not permitted on the dosing day. […] Participants received maximum-strength antacid oral suspension (four teaspoons; 20 mL; 1,600 mg aluminum hydroxide/1,600 mg magnesium hydroxide/160 mg simethicone; referred to as “aluminum/magnesium-containing antacid”) on Day 9, calcium carbonate (1,200 mg; 2 × 600 mg tablets) on Day 17, and ferrous fumarate (1 × 324 mg tablet) on Day 25. […] All samples were analyzed within the timeframe determined using frozen stability storage data. […] PK parameters were estimated using Phoenix WinNonlin software (Version 6.4, Pharsight Corporation, Princeton, NJ, USA) using standard noncompartmental analysis methods. […] The estimated 90% CIs were compared to a prespecified lack of DDI boundary of 70%–143%. […] A minimum of 12 evaluable participants in each cohort was calculated to be needed to reject the null hypothesis (i.e., the 90% CI for the GLSM ratio for each PK parameter was outside the prespecified boundary) with ≥90% power.

[1] = Cohort 1 fasted, B/F/TAF + calcium carbonate simultaneous, N = 14
[2] = Cohort 1 fasted, B/F/TAF alone, N = 14
[3] = Cohort 1 fasted, simultaneous aluminum/magnesium-containing antacid
[4] = Cohort 1 fasted, simultaneous calcium carbonate
[5] = Cohort 1 fasted, simultaneous ferrous fumarate
[6] = Cohort 2 fasted, B/F/TAF 2 hours after aluminum/magnesium-containing antacid
[7] = Cohort 2 fasted, B/F/TAF 2 hours after aluminum/magnesium-containing antacid, N = 13
[8] = Cohort 2 fasted, B/F/TAF 2 hours before aluminum/magnesium-containing antacid, N = 13
[9] = Cohort 2 fasted, B/F/TAF alone, N = 14
[10] = Cohort 3, B/F/TAF alone (fasted), N = 14
[11] = Cohort 3 fed, B/F/TAF + aluminum/magnesium-containing antacid simultaneous, N = 14
[12] = Cohort 3 fed, simultaneous aluminum/magnesium-containing antacid
[13] = Cohort 1 fasted, B/F/TAF + aluminum/magnesium-containing antacid simultaneous, N = 14
[14] = Cohort 1 fasted, B/F/TAF + ferrous fumarate simultaneous, N = 14
[15] = Cohort 3 fed, B/F/TAF + ferrous fumarate simultaneous, N = 14

O=C(NCc1c(F)cc(F)cc1F)c1cn2c(c(O)c1=O)C(=O)N1[C@H]3CC[C@H](C3)O[C@@H]1C2 [BIC, bictegravir]
BIC T1/2, median (Q1, Q3) [1]: 21.0 (17.6, 25.0) h | BIC plasma Tmax, median (Q1, Q3) [1]: 1.8 (1.5, 4.0) h | BIC plasma AUCinf, mean (%CV) [2]: 121.9 (24.4) µg*h/mL | Cmax, reference GLSM (Cohort 1 fasted): 5540 ng/mL | Delay of median Tmax compared with B/F/TAF alone [3]: 1 h | Increase in mean BIC CL/F compared with B/F/TAF alone [3]: 404% | Increase in mean BIC Vz/F compared with B/F/TAF alone [3]: 421% | Reduction in BIC AUCinf compared with B/F/TAF alone [3]: 79% | Reduction in BIC C24 compared with B/F/TAF alone [3]: 78% | Reduction in BIC Cmax compared with B/F/TAF alone [3]: 80% | Increase in mean BIC CL/F compared with B/F/TAF alone [4]: 56% | Increase in mean BIC Vz/F compared with B/F/TAF alone [4]: 84% | Reduction in BIC AUCinf compared with B/F/TAF alone [4]: 33% | Reduction in BIC C24 compared with B/F/TAF alone [4]: 35% | Reduction in BIC Cmax compared with B/F/TAF alone [4]: 42% | Delay of median Tmax compared with B/F/TAF alone [5]: 1.5 h | Increase in mean BIC CL/F compared with B/F/TAF alone [5]: 174% | Increase in mean BIC Vz/F compared with B/F/TAF alone [5]: 216% | Reduction in BIC AUCinf compared with B/F/TAF alone [5]: 63% | Reduction in BIC C24 compared with B/F/TAF alone [5]: 63% | Reduction in BIC Cmax compared with B/F/TAF alone [5]: 71% | Cmax, test GLSM (Cohort 2 fasted, B/F/TAF 2 h before aluminum/magnesium-containing antacid, N = 14): 5460 ng/mL | Decrease in BIC AUCinf compared with B/F/TAF alone [6]: 52% | Decrease in BIC C24 compared with B/F/TAF alone [6]: 53% | Decrease in BIC Cmax compared with B/F/TAF alone [6]: 59% | Delay of median Tmax compared with B/F/TAF alone [6]: 1 h | Increase in mean BIC CL/F compared with B/F/TAF alone [6]: 124% | Increase in mean BIC VZ/F compared with B/F/TAF alone [6]: 180% | BIC plasma Tmax, median (Q1, Q3) [7]: 2.0 (1.5, 3.0) h | Delay of median Tmax compared with B/F/TAF alone (Cohort 2 fasted, B/F/TAF 2 hours before aluminum/magnesium-containing antacid): 1.5 h | BIC plasma Tmax, median (Q1, Q3) [8]: 1.5 (1.5, 2.0) h | BIC T1/2, median (Q1, Q3) [9]: 20.8 (16.5, 22.8) h | BIC plasma Tmax, median (Q1, Q3) [9]: 3.0 (2.0, 3.0) h | BIC T1/2, median (Q1, Q3) [10]: 18.0 (17.5, 19.9) h | BIC plasma Tmax, median (Q1, Q3) [10]: 1.5 (1.5, 2.0) h | Cmax, reference GLSM (Cohort 3, fasted): 4540 ng/mL | BIC T1/2, median (Q1, Q3) [11]: 17.9 (16.9, 20.2) h | Decrease in BIC AUCinf compared with B/F/TAF alone under fasted conditions [12]: 47% | Decrease in BIC C24 compared with B/F/TAF alone under fasted conditions [12]: 44% | Decrease in BIC Cmax compared with B/F/TAF alone under fasted conditions [12]: 49% | Delay of median Tmax compared with B/F/TAF alone under fasted conditions [12]: 2 h | Increase in mean BIC CL/F compared with B/F/TAF alone under fasted conditions [12]: 89% | Increase in mean BIC Vz/F compared with B/F/TAF alone under fasted conditions [12]: 89% | Delay of median Tmax compared with B/F/TAF alone under fasted conditions (Cohort 3 fed, simultaneous calcium carbonate): 2 h | Delay of median Tmax compared with B/F/TAF alone under fasted conditions (Cohort 3 fed, simultaneous ferrous fumarate): 2.5 h | half-life [13]: 20.2 h | half-life [14]: 21.9 h | half-life [2]: 18.9 h | half-life [7]: 24.2 h | half-life [8]: 21.8 h | half-life (Cohort 3 fed, B/F/TAF + calcium carbonate simultaneous, N = 14): 18.9 h | half-life [15]: 19.3 h | Vd/F [13]: 61.4 L | Vd/F [1]: 21.7 L | Vd/F [14]: 37.3 L | Vd/F [2]: 11.8 L | Vd/F [7]: 31.2 L | Vd/F [8]: 14.4 L | Vd/F [9]: 11.2 L | Vd/F [11]: 29.1 L | Vd/F [15]: 19.3 L | AUC(0-inf) [13]: 28000 ng·h/mL | AUC(0-inf) [1]: 85000 ng·h/mL | AUC(0-inf) [14]: 46100 ng·h/mL | AUC(0-inf) [7]: 67700 ng·h/mL | AUC(0-inf) [8]: 116000 ng·h/mL | AUC(0-inf) [9]: 133000 ng·h/mL
